# Literature values as cited in patent publication US20140342380A1, “VERIFYING THE SOURCE OF BIOLOGICAL SAMPLES; METHOD, COMPOSITION AND KIT THEREFOR” (priority 2011, published 2014).
# Where two headings read alike, the source gives them in different places.
# Tests used:
# [1] = cited from earlier work
# [2] = cited from earlier work; remark: listed apart in the source
compound,measurement,setting,value
"CCCCCCCCCCCCOC(=O)CCSCCC(=O)OCCCCCCCCCCCC [Dilauryl thiodipropionate (DLTDP), Dilauryl thiodipropionate]",metabolite(s) / form excreted in urine after ingestion,"[1]; Table 1 note, species not stated","Dilauryl thiodipropionate (DLTDP), Ingested DLTDP was excreted in the urine as thiodipropionic"
inulin,renal handling / detection in urine after consumption,[1]; general statement,"readily passively filtered by the kidney, e.g., detected in the urine after consumption"
C=CCc1ccc(O)c(OC)c1 [eugenol],metabolite(s) found after ingestion,"[2]; rat, in vivo",eugenol clove leaf oil metabolized to Glucuronide and sulfate conjugates were identified in urine.
O=C(OC[C@H]1O[C@@H](OC(=O)c2cc(O)c(O)c(OC(=O)c3cc(O)c(O)c(O)c3)c2)[C@H](OC(=O)c2cc(O)c(O)c(OC(=O)c3cc(O)c(O)c(O)c3)c2)[C@@H](OC(=O)c2cc(O)c(O)c(OC(=O)c3cc(O)c(O)c(O)c3)c2)[C@@H]1OC(=O)c1cc(O)c(O)c(OC(=O)c2cc(O)c(O)c(O)c2)c1)c1cc(O)c(O)c(OC(=O)c2cc(O)c(O)c(O)c2)c1 [Tannic acid],metabolite(s) found after ingestion,"[2]; Table 1 note, cited study in rat","Tannic acid: metabolized to 4-0-Methylgallic acid (4-OMGA), pyrogallol (PY), and resorcinol"
